PubChem BioAssay AID1259407 (Chemical Carcinogenesis Research Information System (CCRIS), 2018)
Activity calls are given as the source filed them. How the calls were made is not given here.

System: CCRIS mutagenicity, Ames/micronucleus/aberration tests
Assay: CCRIS mutagenicity studies
[1] = Test System: AMES SALMONELLA TYPHIMURIUM, Strain/Indicator: TA97, Metabolic Activation: NONE, Method: PREINCUBATION
[2] = Test System: AMES SALMONELLA TYPHIMURIUM, Strain/Indicator: TA98, Metabolic Activation: NONE, Method: PREINCUBATION
[3] = Test System: AMES SALMONELLA TYPHIMURIUM, Strain/Indicator: TA100, Metabolic Activation: NONE, Method: PREINCUBATION
[4] = Test System: AMES SALMONELLA TYPHIMURIUM, Strain/Indicator: TA1535, Metabolic Activation: NONE, Method: PREINCUBATION
[5] = Test System: AMES SALMONELLA TYPHIMURIUM, Strain/Indicator: TA1537, Metabolic Activation: NONE, Method: PREINCUBATION
[6] = Test System: AMES SALMONELLA TYPHIMURIUM, Strain/Indicator: TA98, Metabolic Activation: NONE, Method: STANDARD PLATE
[7] = Test System: AMES SALMONELLA TYPHIMURIUM, Strain/Indicator: TA100, Metabolic Activation: RAT, LIVER, S-9, AROCLOR 1254, Method: STANDARD PLATE

In the case of `CCCCOc1ccc(C=Nc2ccc(CC)cc2)cc1`, the mutagenic call (Test System: AMES SALMONELLA TYPHIMURIUM, Strain/Indicator: TA97, Metabolic Activation: HAMSTER, LIVER, S-9, AROCLOR 1254 (30%), Method: PREINCUBATION) is reported as “inactive; negative”, the mutagenic call [1] is reported as “inactive; negative” and the mutagenic call (Test System: AMES SALMONELLA TYPHIMURIUM, Strain/Indicator: TA97, Metabolic Activation: RAT, LIVER, S-9, AROCLOR 1254 (30%), Method: PREINCUBATION) is reported as “inactive; negative”. The mutagenic call (Test System: AMES SALMONELLA TYPHIMURIUM, Strain/Indicator: TA98, Metabolic Activation: HAMSTER, LIVER, S-9, AROCLOR 1254 (30%), Method: PREINCUBATION) was “inactive; negative”, the mutagenic call [2] was “inactive; negative” and the mutagenic call (Test System: AMES SALMONELLA TYPHIMURIUM, Strain/Indicator: TA98, Metabolic Activation: RAT, LIVER, S-9, AROCLOR 1254 (30%), Method: PREINCUBATION) was “inactive; negative”. The mutagenic call (Test System: AMES SALMONELLA TYPHIMURIUM, Strain/Indicator: TA100, Metabolic Activation: HAMSTER, LIVER, S-9, AROCLOR 1254 (10%), Method: PREINCUBATION) was “inactive; negative”, the mutagenic call [3] was “inactive; negative” and the mutagenic call (Test System: AMES SALMONELLA TYPHIMURIUM, Strain/Indicator: TA100, Metabolic Activation: RAT, LIVER, S-9, AROCLOR 1254 (30%), Method: PREINCUBATION) was “inactive; negative”. For the same compound, the mutagenic call (Test System: AMES SALMONELLA TYPHIMURIUM, Strain/Indicator: TA1535, Metabolic Activation: HAMSTER, LIVER, S-9, AROCLOR 1254 (10%), Method: PREINCUBATION) was “inactive; negative”, the mutagenic call (Test System: AMES SALMONELLA TYPHIMURIUM, Strain/Indicator: TA1535, Metabolic Activation: HAMSTER, LIVER, S-9, AROCLOR 1254 (30%), Method: PREINCUBATION) was “inactive; negative” and the mutagenic call [4] was “inactive; negative”. For the same compound, the mutagenic call (Test System: AMES SALMONELLA TYPHIMURIUM, Strain/Indicator: TA1535, Metabolic Activation: RAT, LIVER, S-9, AROCLOR 1254 (30%), Method: PREINCUBATION) was “inactive; negative”, the mutagenic call (Test System: AMES SALMONELLA TYPHIMURIUM, Strain/Indicator: TA1537, Metabolic Activation: HAMSTER, LIVER, S-9, AROCLOR 1254 (30%), Method: PREINCUBATION) was “inactive; negative” and the mutagenic call [5] was “inactive; negative”. For the same compound, the mutagenic call (Test System: AMES SALMONELLA TYPHIMURIUM, Strain/Indicator: TA1537, Metabolic Activation: RAT, LIVER, S-9, AROCLOR 1254 (30%), Method: PREINCUBATION) was “inactive; negative”.
For `O=C1C=Cc2ccc3c(ccc4ccccc43)c2C1=O`, the mutagenic call [6] was “inactive; negative” and the mutagenic call [7] was “active; positive”.
With `CCCCCCCCCCCCCCCCCCN` the mutagenic call (Test System: AMES SALMONELLA TYPHIMURIUM, Strain/Indicator: TA97, Metabolic Activation: HAMSTER, LIVER, S-9, AROCLOR 1254 (10 OR 30%), Method: PREINCUBATION) was “inactive; negative”, the mutagenic call [1] was “inactive; negative” and the mutagenic call (Test System: AMES SALMONELLA TYPHIMURIUM, Strain/Indicator: TA97, Metabolic Activation: RAT, LIVER, S-9, AROCLOR 1254 (10 OR 30%), Method: PREINCUBATION) was “inactive; negative”. For the same compound, the mutagenic call (Test System: AMES SALMONELLA TYPHIMURIUM, Strain/Indicator: TA98, Metabolic Activation: HAMSTER, LIVER, S-9, AROCLOR 1254 (10 OR 30%), Method: PREINCUBATION) was “inactive; negative”, the mutagenic call [2] was “inactive; negative” and the mutagenic call (Test System: AMES SALMONELLA TYPHIMURIUM, Strain/Indicator: TA98, Metabolic Activation: RAT LIVER S-9, PHENOBARBITAL AND BETA-NAPHTHOFLAVONE, Method: PREINCUBATION) was “inactive; negative”. For the same compound, the mutagenic call (Test System: AMES SALMONELLA TYPHIMURIUM, Strain/Indicator: TA98, Metabolic Activation: RAT, LIVER, S-9, AROCLOR 1254 (10 OR 30%), Method: PREINCUBATION) was “inactive; negative”, the mutagenic call (Test System: AMES SALMONELLA TYPHIMURIUM, Strain/Indicator: TA100, Metabolic Activation: HAMSTER, LIVER, S-9, AROCLOR 1254 (10 OR 30%), Method: PREINCUBATION) was “inactive; negative” and the mutagenic call [3] was “inactive; negative”. The mutagenic call (Test System: AMES SALMONELLA TYPHIMURIUM, Strain/Indicator: TA100, Metabolic Activation: RAT LIVER S-9, PHENOBARBITAL AND BETA-NAPHTHOFLAVONE, Method: PREINCUBATION) was “inactive; negative”, the mutagenic call (Test System: AMES SALMONELLA TYPHIMURIUM, Strain/Indicator: TA100, Metabolic Activation: RAT, LIVER, S-9, AROCLOR 1254 (10 OR 30%), Method: PREINCUBATION) was “inactive; negative” and the mutagenic call (Test System: AMES SALMONELLA TYPHIMURIUM, Strain/Indicator: TA1535, Metabolic Activation: HAMSTER, LIVER, S-9, AROCLOR 1254 (10 OR 30%), Method: PREINCUBATION) was “inactive; negative”. For the same compound, the mutagenic call [4] was “inactive; negative”, the mutagenic call (Test System: AMES SALMONELLA TYPHIMURIUM, Strain/Indicator: TA1535, Metabolic Activation: RAT LIVER S-9, PHENOBARBITAL AND BETA-NAPHTHOFLAVONE, Method: PREINCUBATION) was “inactive; negative” and the mutagenic call (Test System: AMES SALMONELLA TYPHIMURIUM, Strain/Indicator: TA1535, Metabolic Activation: RAT, LIVER, S-9, AROCLOR 1254 (10 OR 30%), Method: PREINCUBATION) was “inactive; negative”. The mutagenic call [5] was “inactive; negative”, the mutagenic call (Test System: AMES SALMONELLA TYPHIMURIUM, Strain/Indicator: TA1537, Metabolic Activation: RAT LIVER S-9, PHENOBARBITAL AND BETA-NAPHTHOFLAVONE, Method: PREINCUBATION) was “inactive; negative” and the mutagenic call (Test System: E.COLI, Strain/Indicator: WP2UVRA/PKM101, Metabolic Activation: NONE, Method: PREINCUBATION) was “inactive; negative”. For the same compound, the mutagenic call (Test System: E.COLI, Strain/Indicator: WP2UVRA/PKM101, Metabolic Activation: RAT LIVER S-9, PHENOBARBITAL AND BETA-NAPHTHOFLAVONE, Method: PREINCUBATION) was “inactive; negative”.
In the case of `O=c1c2ccccc2[nH]c2occc12`, the mutagenic call [6] is reported as “inactive; negative” and the mutagenic call (Test System: AMES SALMONELLA TYPHIMURIUM, Strain/Indicator: TA98, Metabolic Activation: RAT LIVER S-9, PHENOBARTITAL, Method: STANDARD PLATE) is reported as “inactive; negative”.
With `CN(C)c1ccc(N=Nc2ccc3ccccc3c2)cc1` the mutagenic call (Test System: AMES SALMONELLA TYPHIMURIUM, Strain/Indicator: TA98, Metabolic Activation: HAMSTER, LIVER, S-9, AROCLOR 1254, Method: STANDARD PLATE) was “active; positive”, the mutagenic call (Test System: AMES SALMONELLA TYPHIMURIUM, Strain/Indicator: TA98, Metabolic Activation: HAMSTER, LIVER, S-9, Method: PREINCUBATION (PRIVAL METHOD)) was “active; positive” and the mutagenic call (Test System: AMES SALMONELLA TYPHIMURIUM, Strain/Indicator: TA98, Metabolic Activation: RAT, LIVER, S-9, AROCLOR 1254, HAMSTER, LIVER, S-9, AROCLOR 1254, Method: STANDARD PLATE) was “active; positive”. For the same compound, the mutagenic call (Test System: AMES SALMONELLA TYPHIMURIUM, Strain/Indicator: TA100, Metabolic Activation: HAMSTER, LIVER, S-9, Method: PREINCUBATION (PRIVAL METHOD)) was “active; positive”, the mutagenic call (Test System: AMES SALMONELLA TYPHIMURIUM, Strain/Indicator: TA1538, Metabolic Activation: RAT, LIVER, S-9, AROCLOR 1254, HAMSTER, LIVER, S-9, AROCLOR 1254, Method: STANDARD PLATE) was “active; positive” and the mutagenic call (Test System: MOUSE LYMPHOMA, Strain/Indicator: L5178Y (TK+/TK-), Metabolic Activation: RAT, LIVER, S-9, AROCLOR 1254, Method: SUSPENSION/PLATE) was “active; positive. reevaluation of results: positive”. The mutagenic call (Test System: Mouse lymphoma, Strain/Indicator: L5178Y (tk+/tk-), Metabolic Activation: None, Method: Suspension/plate) was “inactive; negative”.
With `O[C@@H]1[C@H]2O[C@H]2c2c(ccc3cc4ccc5ccccc5c4nc23)[C@H]1O` the mutagenic call [2] was “active; positive”, the mutagenic call [3] was “active; positive” and the mutagenic call (Test System: CHINESE HAMSTER V-79, Strain/Indicator: V-79/8-AZAGUANINE, Metabolic Activation: NONE, Method: STANDARD PLATE) was “active; positive”.
With `C1=Cc2c(ccc3ccc4ccccc4c23)C1` the mutagenic call [7] was “active; positive”.
